Key:
[1] = target: T1, kinase domain protein of RC kinase (RCK) (Homo sapiens, UniProt Q56UN5); experiment: Kinase competition binding assay (Kd, qPCR readout), RC kinase; conditions: Kd class, read-out: RCK Activity Level
T1 construct: made in house; host or cells: E. coli BL21-derived host (T7 phage) or HEK-293
T1 sequence (Q56UN5 1061-1324 limits assumed): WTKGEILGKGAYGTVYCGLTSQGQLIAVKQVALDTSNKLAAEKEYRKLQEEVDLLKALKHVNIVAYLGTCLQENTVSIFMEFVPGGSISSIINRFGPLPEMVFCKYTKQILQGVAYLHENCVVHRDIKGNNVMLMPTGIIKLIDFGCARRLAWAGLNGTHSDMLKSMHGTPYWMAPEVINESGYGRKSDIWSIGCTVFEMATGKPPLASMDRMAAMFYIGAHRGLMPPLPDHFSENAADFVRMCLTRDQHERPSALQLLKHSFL
Procedure, shortened: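 Competition binding: DNA-tagged kinase (T7 phage or HEK-293-expressed) plus immobilized biotinylated ligand beads and compound, 1 h at room temperature, 1% DMSO. Bead-bound kinase eluted and quantified by qPCR. Kd from 11-point 3-fold dilution, top 30,000 nM, retested lower if below 0.5 nM.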

JAK2 = target: T2, JAK2 (Homo sapiens, UniProt O60674); experiment: Kinase competition binding assay (Kd, qPCR readout), JAK2
T2 construct: made in house; host or cells: E. coli BL21-derived host (T7 phage) or HEK-293
Procedure, shortened: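 Competition binding: DNA-tagged kinase (T7 phage or HEK-293-expressed), immobilized biotinylated ligand beads and compound in SeaBlock/PBS/Tween/DTT buffer, 1 hour at room temperature; bound kinase eluted and quantified by qPCR. Kd from 11-point 3-fold dilution, top 30,000 nM typically, final DMSO 1%.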

JAK3 = target: T3, JAK3 (Homo sapiens, UniProt P52333); experiment: Kinase competition binding assay (Kd, qPCR readout), JAK3
T3 construct: made in house; host or cells: E. coli BL21-derived host (T7 phage) or HEK-293
Procedure, shortened: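 Competition binding in which kinase, either T7 phage-tagged or HEK-293-expressed and DNA-tagged, was exposed to immobilized biotinylated ligand and test compound for 1 h at room temperature. Bead-bound kinase was eluted and quantified by qPCR. Kd came from 11-point 3-fold dilutions, top concentration 30,000 nM and 1% DMSO, repeated lower if below 0.5 nM.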

T3 sequence (P52333 811-1124 limits assumed): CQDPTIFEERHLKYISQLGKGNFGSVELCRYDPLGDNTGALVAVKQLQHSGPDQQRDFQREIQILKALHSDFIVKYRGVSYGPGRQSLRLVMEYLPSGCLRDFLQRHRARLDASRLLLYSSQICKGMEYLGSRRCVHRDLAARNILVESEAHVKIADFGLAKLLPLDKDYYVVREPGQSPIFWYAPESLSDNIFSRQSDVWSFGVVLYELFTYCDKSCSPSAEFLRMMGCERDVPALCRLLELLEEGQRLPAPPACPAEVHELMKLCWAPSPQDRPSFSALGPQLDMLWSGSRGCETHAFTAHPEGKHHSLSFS
T2 sequence (O60674 840-1132 limits assumed): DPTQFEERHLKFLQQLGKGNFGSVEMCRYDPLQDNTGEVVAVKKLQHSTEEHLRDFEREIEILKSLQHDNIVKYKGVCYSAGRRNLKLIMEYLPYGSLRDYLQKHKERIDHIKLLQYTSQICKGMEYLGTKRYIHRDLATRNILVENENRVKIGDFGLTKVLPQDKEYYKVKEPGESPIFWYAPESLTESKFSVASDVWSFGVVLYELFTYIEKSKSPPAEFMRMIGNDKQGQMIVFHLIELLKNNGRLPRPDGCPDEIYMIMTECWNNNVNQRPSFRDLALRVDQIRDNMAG

Kd [1]: < 50 nM | Kd (JAK2; Kd class, JAK2, read-out: JAK2 Activity Level): < 50 nM | RCK:JAK2 selectivity ratio (JAK2; ratio Kd (JAK2): Kd(RCK)): D (D represents Kd(JAK2): Kd (RCK)<1) | JAK3 Activity Level (JAK3; Kd class, JAK3): .A | RCK:JAK3 selectivity ratio (JAK3; ratio Kd (JAK3): Kd (RCK)): D (D represents Kd (JAK3): Kd(RCK)<1)
Structure (SMILES): NC(=O)c1c(Nc2ccc(N3CCOCC3)cn2)n[nH]c1NCc1ccc(O)cc1 [reference compound]
